Reference: US8039501B2, “Synephrine derivatives useful as anti-inflammatory agents” (Universiteit Gent, priority 2005, dated 2011)
Residues, ends and D or L forms follow the SMILES beside them. *: point of attachment. Cbz = O=C(OCc1ccccc1)*

Legend:
[1] = MTT test, cell viability of A549 cells; type: cell-based, human; settings: human, A549 lung epithelial (carcinoma) cells; 10^−5 M; 48 hours; FIG. 6B; read-out: Block of A549 cell viability
Experimental: (§1) The MTT test is a standard assay addressing cell toxicity of a compound. It is based on the principle that after 3-4 hours of cell incubation with MTT (3-(4,5-dimethylthiazole-2-yl)-2,5-diphenyl tetrazolium bromide) so-called purple formazan crystals develop in living and early apoptotic cells. Dead cells don't produce formazan crystals.
(§2) Different cell lines were tested. Unless indicated differently, A549 human lung epithelial cells (derived from lung carcinoma) and L929sA murine fibroblast cells were cultured in DMEM with 10% FCS, 100 U/ml penicillin and 100 μg/ml streptomycin. Unless indicated differently, the human multiple myeloma cell lines L363, U266 and MM1.S were cultured in RPMI 1640 with Glutamax-I, supplemented with 10% FCS, 100 U/ml penicillin and 100 μg/ml streptomycin. Cells were seeded at 5000 cells/well (for adherent A549 and L929sA cells) or at 10000 cells/well (for the multiple myeloma lines in suspension) in 96 well plates. Cells were incubated in the presence of the respective synephrine compounds or vehicle (EtOH; for control test) in a final volume of 0.2 ml for 24 or 48 hours at 37° C. Subsequently, 20 μl of MTT solution (5 mg/ml in phosphate-buffered saline) was added to each well. After 4 hours incubation at 37° C., 80 μl of the extraction buffer (10% SDS, 0.01 M HCl) was added. After overnight incubation at room temperature, the optical densities at 590 nm were measured. Results are illustrated in FIGS. 2 to 6 and are expressed as percentage of viable cells as compared to vehicle-treated controls.
(§3) In a further MTT test, the activity of the synephrine derivatives on the inhibition of cell viability of non-immune cells was measured. […] Tests were performed for 24 hours and for 48 hours. The results are illustrated by FIGS. 5A and 5B for L929 cells, and by FIGS. 6A and 6B for A549 cells. It was observed that CpdA at 10^−5 M blocked cell viability of L929sA and A549 for not more than 10%.

[2] = system: A549 human lung epithelial cells; experiment: MTT test, cell viability of A549 cells; type: cell-based
Experimental: as §1, §2, §3

MM1.S cell line = experiment: MTT test, cell viability of MM1.S cells; type: cell-based, human; settings: 10% FCS, FIG. 4A
Experimental: as §1, §2
(§4) The MTT test was further extended to include alternative synephrine derivatives and a range of multiple myeloma cell lines for which the results are illustrated by FIGS. 3A, 3B and 4A. Human multiple myeloma cell lines L363, U266 and MM1.S were cultured in RPMI 1640 with Glutamax-I, supplemented with 10% FCS, 100 U/ml penicillin and 100 μg/ml streptomycin. Cells were seeded at 10000 cells/well in 96 well plates. Cells were incubated in the presence of test compounds or vehicle in a final volume of 0.2 ml for 24 or 48 hours at 37° C. The test compounds included in the test were the synephrine derivatives CpdA, Naphth, Benz and Isobut, and DEX as a comparative example. Subsequently, 20 μl of MTT solution (5 mg/ml in phosphate-buffered saline) was added to each well. After 4 hours incubation at 37° C., 80 μl of the extraction buffer (10% SDS, 0.01 M HCl) was added. After 48 hours incubation at room temperature, the optical densities at 590 nm were measured. Results are expressed as percentage of viable cells as compared to vehicle-treated controls.

L363 cell line = experiment: MTT test, cell viability of L363 cells; type: cell-based, human; settings: 10% FCS, FIG. 3B; for Cell killing of L363 cells: 10^−5 M; for cytotoxicity at 100 µM: Homo sapiens, L-363, read-out: Block of L363 cell viability
Experimental: as §1, §2, §4

[3] = MTT test, cell viability of L929sA fibroblasts; type: cell-based, murine; settings: mouse, L929sA fibroblast cells; 10^−5 M; within 48 hours; FIG. 5B; read-out: Block of L929sA cell viability
Experimental: as §1, §2, §3

[4] = system: pE-selectin-Luc (E-selectin promoter); experiment: pE-selectin-Luc reporter gene assay in TNF-induced L929sA cells; type: cell-based, mouse; settings: indicated concentrations, from -2 hours for 8 hours; TNF 2000 IU/ml 6 hours; FIG. 1
Excerpt: L929sA mouse fibroblast cells were stably transfected with pE-selectine-Luc (also referred to as pELAM-luc) by the calcium phosphate precipitation procedure described by De Bosscher et al. in Proc. Natl. Acad. Sci. USA (1997) 94, 13504-13509. The co-transfected plasmid pPGKβGeobpA, conferring resistance to G418 and expressing constitutive β-galactosidase enzymatic activity, was used as an internal control. L929sA cells were transiently transfected by the DEAE-dextran transfection method described by De Bosscher et al. (cited supra).
Recombinant murine tumor necrosis factor (TNF) was produced according to a method standard in the art. Dexamethasone (hereinafter abbreviated as DEX) commercially available from Sigma, and 2-(4-acetoxyphenyl)-2-chloro-N-methyl-ethylammonium chloride (hereinafter abbreviated as compound A) was synthesized according to Louw et al. in Biochemical Pharmacology (1997) 53, 189-197). A stock solution was prepared in ethanol (for DEX) or DMSO (for both comparative compound A and for the compound of example 6 according to this invention, i.e. 1-[4-(benzoyloxy)phenyl]-2-[(tert-butoxy-carbonyl)-methylamino]ethyl-1H-imidazole-1-carboxylate), aliquoted and stored at −70° C.
Induction was performed in triplicate for each independent experiment, which was carried out at least twice. Induction with DEX, compound A, and for the compound of example 6 according to this invention at 1 μM, 10 μM or respectively any other indicated concentration were performed at −2 hours for a total of 8 hours, while TNF (2000 IU/ml) was added at time point zero and left on the cells for 6 hours. After induction, cells were lysed with a lysis buffer (commercially available from Tropix, Bedford, Massachussets) and samples were assayed according to the manufacturer's instructions (Promega Biotech).
In order to investigate whether the inhibitory effect of compound A or the compound of example 6 according to this invention is directed at the transcriptional level of NF-κB-driven genes, the NF-κB-dependent physiological promoter construct, pE-selectin-Luc stably integrated into L929sA cells, was tested. […] DEX-mediated and compound A-mediated inhibition of TNF-induced gene expression were used as controls (FIG. 1). In the appended figures, NI stands for non-induced (either in presence of solvent controls like ethanol or DMSO).

[5] = system: multiple myeloma cells U266; experiment: MTT test, cell viability of U266 cells; type: cell-based, human; settings: 10^−4 M, 10% FCS, FIG. 3A; for cytotoxicity at 100 µM: Homo sapiens, U-266, read-out: Block of U266 cell viability / cell killing
Experimental: as §1, §2, §4

B-CLL cells = experiment: Annexin V/PI flow cytometric analysis of apoptosis in ex-vivo cultured B-CLL cells; type: cell-based, human; settings: 24 hours
Experimental: Blood samples were obtained from B-CLL patients after informed consent according to institutional guidelines. CLL lymphocytes were isolated using Lymphoprep (Nycomed Pharma, Denmark) and re-suspended at a final concentration of 10−30×10^6 cells/ml in RPMI 1640 medium, supplemented with 10% heat-inactivated fetal bovine serum (FBS) (Greiner Bio-one, Wemmel, Belgium), 100 IU/ml penicillin, 100 μg/ml streptomycin, and 0.56 μg/mL fungizone (Gibco BRL, Merelbeke, Belgium). B-CLL cells were cultured in Dulbecco's Modified Eagle Medium (DMEM) (Gibco, Invitrogen Inc.) containing 10% FBS (Gibco, Invitrogen Inc.). For flow cytometric analysis of apoptosis, B-CLL cells were treated with the different compounds for 24 hours, 3×10^5 cells were removed from the culture medium, washed twice with cold PBS, and double stained with annexin V-fluorescein isothiocyanate (FITC) and propidium iodide (PI; Beckman Coulter, Miami, Fla.) in Annexin binding buffer, followed by analysis on a FC500PTM (Beckman Coulter, Nyon, Switzerland) flow cytometer. Flow cytometric data were analyzed using Cytomixs RXP software (Beckman Coulter, Nyon, Switzerland). To avoid non-specific fluorescence from dead cells, live cells were gated using forward and side scatter.
One of the early signs of apoptosis is the translocation of the membrane phospholipid phosphatidylserine from the cytoplasmic interface to the extracellular surface. Annexin V has a high affinity for the phospatidylserine-containing phospholipid bilayers. […] As the plasma membrane becomes increasingly permeable during the later stages of apoptosis, the DNA-binding dye PI can readily move across the cell membrane and bind to cellular DNA, providing a means to detect the loss of membrane integrity through mechanisms including necrosis. Three different cell populations can be observed in cells double-stained with AnnV-FITC and PI. […] Cells that stain with Ann V only are early apoptotic cells. And cells that stain with both AnnV and PI are late apoptotic/necrotic cells. The percentage of AnnV-positive B-CLL cells in the lymphocyte gate were measured by FACS and results were expressed as % apoptotic cells, i.e. sum of early apoptotic (AnnV+, PI−), and late apoptotic/dead cells (AnnV+, PI+). The percent of living cells was normalized to 100% living cells incubated in control medium with 0.1% EtOH. All measurements were made in duplicate and averaged.

MM1.S cell lines = experiment: Annexin V/PI assay in MM1.S cells; type: cell-based, human; settings: positive control, FIG. 13
Experimental: 1. […] Procedure: • Human multiple myeloma cell lines L363, U266, MM1.S and MMR.1 are cultured in RPMI 1640 with Glutamax-I, supplemented with 10% FCS, 100 U/ml penicillin and 100 μg/ml streptomycin. Cells are counted and resuspended in fresh medium at a concentration of 1×10^6/ml. Next, 1 ml of cell suspension is transferred to 5 ml culture tubes in the presence of test compounds (DEX, CpdA, CpdA analogues: 10^−7 to 10^−4 M) or vehicle (EtOH) and incubated for 24 or 48 hours at 37° C. • Double-staining of the cells with PI and annexin V is performed according to the instructions of the Annexin V kit (BD Biosciences). • Double-stained cells are analyzed by flow cytometry. […] Graphs are represented as the ratio of early apoptotic cells versus late apoptotic cells (a) or as total % of living cells (b).

CN(CC(OC(=O)n1ccnc1)c1ccc(OC(=O)c2ccccc2)cc1)C(=O)OC(C)(C)C (centres unmarked) [Benz, 1-[4-(benzoyloxy)phenyl]-2-[(tert-butoxycarbonyl)-methylamino]ethyl-1H-imidazole-1-carboxylate]
cytotoxicity at 48 h [1]: 10%
Block of A549 cell viability ([2]; 10^−5 M, 24 hours, FIG. 6A): not able to block cell viability
Inhibition of MM1.S cell viability (MM1.S cell line; 10^−5 M): block cell viability completely
Cell killing of L363 cells (L363 cell line): 40%
cytotoxicity at 100 µM (L363 cell line; 10^−4 M): 90%
cytotoxicity at 48 h [3]: ≤ 20%
Inhibition of TNF-induced gene expression (E-selectin gene induction) [4]: effectively inhibit TNF-induced E-selectin gene induction
cytotoxicity at 100 µM [5]: 90%

O=C(O)CCCc1ccc(N(CCCl)CCCl)cc1 [Chlorambucil]
% apoptotic cells, CLL patient 1 (B-CLL cells; 25 · 10^−7M): 51%
% apoptotic cells, CLL patient 2 (B-CLL cells; 25 · 10^−7M): 46%

Nc1nc(F)nc2c1ncn2[C@@H]1O[C@H](CO)[C@@H](O)[C@@H]1O [Fludarabine]
% apoptotic cells, CLL patient 1 (B-CLL cells; 5 · 10^−6M): 56%
% apoptotic cells, CLL patient 2 (B-CLL cells; 5 · 10^−6M): 63%

CC(C)C(=O)Oc1ccc(C(CN(C)C(=O)OC(C)(C)C)OC(=O)n2ccnc2)cc1 (centres unmarked) [Isobut, 1-[4-(isobutanoyloxy)phenyl]-2-[(tert-butoxycarbonyl)-methylamino]ethyl-1H-imidazole-1-carboxylate]
Inhibition of MM1.S cell viability (MM1.S cell line; 10^−5 M): block cell viability completely
Cell killing of L363 cells (L363 cell line): 25%
cytotoxicity at 100 µM (L363 cell line; 10^−4 M): 80%
Inhibition of TNF-induced gene expression (E-selectin gene induction) [4]: effectively inhibit TNF-induced E-selectin gene induction
cytotoxicity at 100 µM [5]: 80%

CC(C)C[C@@H](C=O)NC(=O)[C@H](CC(C)C)NC(=O)[C@H](CC(C)C)NC(=O)OCc1ccccc1 [MG132, reference compound] (Cbz-Leu-Leu-Leu-aldehyde)
Apoptosis (Annexin V/PI staining) (MM1.S cell lines): also mediates apoptosis

CN(CC(OC(=O)n1ccnc1)c1ccc(OC(=O)c2cccc3ccccc23)cc1)C(=O)OC(C)(C)C (centres unmarked) [Naphth, 1-[4-(1-naphthoyloxy)phenyl]-2-[(tert-butyloxycarbonyl)(methyl)amino]ethyl 1H-imida-zole-1-carboxylate]
Block of A549 cell viability ([2]; 10^−4 M, 48 hours, FIG. 6B): 20%
Block of A549 cell viability ([2]; 10^−5 M, 24 hours, FIG. 6A): about 10%
Block of A549 cell viability ([2]; 10^−5 M, 48 hours, FIG. 6B): not more than 20%
Inhibition of MM1.S cell viability (MM1.S cell line; 10^−4 M): almost completely
Inhibition of MM1.S cell viability (MM1.S cell line; 10^−5 M): about 35%
Block of L363 cell viability (L363 cell line; 10^−4 M): 90%
Cell killing of L363 cells (L363 cell line): 40%
Block of U266 cell viability / cell killing [5]: 70%

C[C@H]1C[C@@H]2[C@H]([C@@H](O)C[C@@]3(C)[C@H]2CC[C@]3(O)C(=O)COC(=O)CCC(=O)O)[C@@]2(C)C=CC(=O)C=C12 [Solumedrol]
% apoptotic cells, CLL patient 1 (B-CLL cells; 10^−7M): 60%
% apoptotic cells, CLL patient 2 (B-CLL cells; 10^−7M): 34%

CCCCCC(=O)Oc1ccc(C(O)CN(C)C(=O)OC(C)(C)C)cc1 (centres unmarked) [example 6, 4-{2-[(tert-butoxycarbonyl)(methyl)amino]-1-hydroxyethyl}phenyl hexanoate]
Inhibition of TNF-induced gene expression (E-selectin gene induction) [4]: observed in a dose-responsive manner
